Experimental data: US20070219180A1, “Muscle Relaxtion Accelerator and Therapeutic Agent for Muscular Tissue Diseases Such as Muscle Relaxation Failure” (priority 2004, published 2007)

Target: T1, troponin I and the actin-tropomyosin complex (Homo sapiens, UniProt P19429)
T1 construct: human myocardium-derived troponin I with a molecular weight of 24 kDa; purchased Calbiochem Inc (troponin I); Abcam PLC (troponin C); SIGMA (actin, tropomyosin); host or cells: troponin I from human myocardium
Assay: Experiments 6 and 7: affinity of troponin I and the actin-tropomyosin complex (co-precipitation at defined Ca concentration)
Assay type: binding
Protocol: A solution of 0.4 μg of troponin I (Calbiochem Inc) and 0.54 μg of troponin C (Abcam PLC) was added to 23 μl of distilled water, distributed to 4 test tubes, and centrifuged at 100,000 g for 1 hour (HITACHI Himac 120FC), and 20 μl of the resulting supernatant was collected and stored at 4° C. Then, 50 μl of 600 mM KCl solution, 50 μl of 200 mM MOPS (3-morpholinopropanesulfonic acid) [3-N (morpholino) propanesulfonic acid] (DOJINDO) solution, 50 μl of 20 mM MgCl2 solution, 5 μl of 10 mg/ml pepstatin A (SIGMA) solution, and 50 μl of 150 mM 2-mercaptoethanol (SIGMA) were added as a reaction solution to 99.4 μl of distilled water, and distributed to another 4 test tubes. Next, 3.2 μl of 1 mg/ml actin (SIGMA) and 2.4 μl of 1 mg/ml tropomyosin (SIGMA) were added and mixed, and the mixture was then centrifuged at 2000 g for 5 minutes at 25° C. using a centrifuge (HITACHI Himac CF7D2). The resulting supernatant was put into 4 new test tubes, 50 μl of 50 mM ATP (adenosine 5′-triphosphate) solution was added, and the solution was incubated at 25° C. with mixing for 30 minutes.
Next, 20 μl of the 100,000 g supernatant of troponin I and troponin C which was previously prepared was added to each test tube, and incubated at 25° C. with mixing for 30 minutes. Distilled water alone or 50 μl of a test solution in which the final concentration of the compound was adjusted to 10^−7, 10^−6 and 10^−5 M was added, and the resulting solution was incubated at 25° C. with mixing for 30 minutes.
[…] The solution was incubated at 25° C. with intermittent mixing for 60 minutes, and then centrifuged at 100,000 g for 120 minutes at 25° C. using a centrifuge (HITACHI Himac 120FC: brand name).
After centrifugation, the supernatant was removed, 1 ml of the reaction liquid (excluding Ca^2+ and the drug) was gently added so as not to suspend any precipitate, and the precipitate was again removed by suction; the procedure was repeated twice and the precipitate washed 3 times in total.
The washing solution was removed completely, 20 μl of a sample buffer for polyacrylamide gel electrophoresis (SDS-PAGE) was added and mixed well, the precipitate was suspended and heated for 5 minutes at 95° C., and then poured into a PAG MINI “No. 1” 10/20 gel (Daiichi Pure Chemicals Co., Ltd) and electrophoresized for about 1 hour at 40 mA. After electrophoresis, the suspension was silver-stained using “Daiichi” 2D-silver staining reagent (Daiichi Pure Chemicals Co., Ltd), and washed and dried. Finally, the suspension was scanned (EPSON ES-8500 scanner: brand name) and analyzed (Image J software: brand name).
In this experiment, at a calcium concentration in the test tube of 10^−6 M, the amount of troponin I precipitated in the absence of the compound was set at 1.0. Relatively, the amount of co-precipitation in the presence of 10^−7, 10^−6 and 10^−5 M concentrations of the compound was 1.4, 3.4, and 5.4, respectively; therefore, it was confirmed that the amount of troponin I precipitate increased with an increase in the compound concentration. The actin used in this experiment was swine skeletal muscle-derived actin with a molecular weight of 43 kDa, and was purchased from SIGMA. Tropomyosin used in this experiment was gizzard-derived tropomyosin with a molecular weight of 36 kDa, and was purchased from SIGMA. Troponin I used in this experiment was human myocardium-derived troponin I with a molecular weight of 24 kDa, and was purchased from Calbiochem Inc. Troponin C used in this experiment was human myocardium recombinant-derived troponin C with a molecular weight of 18 kDa, and was purchased from Abcam PLC. These proteins were separated by SDS-polyacrylamide gel electrophoresis and each band was clearly identifiable. […]

[1] = Ca 10^−6 M, the compound 10^−5 M

COc1ccc2c(c1)CN(C(=O)CCN1CCC(Cc3ccccc3)CC1)CCS2 [the compound, 4-[3-(4-benzylpiperidine-1-yl)propionyl]-7-methoxy-2,3,4,5-tetrahydro-1,4-benzothiazepine]
Amount of precipitate of troponin I, Ratio (Ca 10^−8 M = 1.0) (Ca 10^−5 M, the compound 10^−5 M): 0.78
Amount of precipitate of troponin I, Ratio (Ca 10^−8 M = 1.0) [1]: 0.81
Amount of precipitate of troponin I, Ratio (no compound = 1.0) [1]: 5.4
Amount of precipitate of troponin I, Ratio (no compound = 1.0) (Ca 10^−6 M, the compound 10^−6 M): 3.4
Amount of precipitate of troponin I, Ratio (no compound = 1.0) (Ca 10^−6 M, the compound 10^−7 M): 1.4
Amount of precipitate of troponin I, Ratio (Ca 10^−8 M = 1.0) (Ca 10^−7 M, the compound 10^−5 M): 0.94
Amount of precipitate of troponin I, Ratio (Ca 10^−8 M = 1.0) (Ca 10^−8 M, the compound 10^−5 M (reference set at 1.0)): 1.0
